{"source": "patent US20140113898A1", "about": "“BISARYLSULFONE AND DIALKYLARYLSULFONE COMPOUNDS AS CALCIUM CHANNEL BLOCKERS” (Zalicus Pharmaceuticals Ltd., priority 2010, published 2014)", "data": [{"molecular_target": "T1, CaV2.2 (Homo sapiens, UniProt Q00975)", "T1 construct": "expressed in transfected cells; host or cells: unnamed doxycycline-inducible cell line", "T1 sequence (Q00975 whole entry)": "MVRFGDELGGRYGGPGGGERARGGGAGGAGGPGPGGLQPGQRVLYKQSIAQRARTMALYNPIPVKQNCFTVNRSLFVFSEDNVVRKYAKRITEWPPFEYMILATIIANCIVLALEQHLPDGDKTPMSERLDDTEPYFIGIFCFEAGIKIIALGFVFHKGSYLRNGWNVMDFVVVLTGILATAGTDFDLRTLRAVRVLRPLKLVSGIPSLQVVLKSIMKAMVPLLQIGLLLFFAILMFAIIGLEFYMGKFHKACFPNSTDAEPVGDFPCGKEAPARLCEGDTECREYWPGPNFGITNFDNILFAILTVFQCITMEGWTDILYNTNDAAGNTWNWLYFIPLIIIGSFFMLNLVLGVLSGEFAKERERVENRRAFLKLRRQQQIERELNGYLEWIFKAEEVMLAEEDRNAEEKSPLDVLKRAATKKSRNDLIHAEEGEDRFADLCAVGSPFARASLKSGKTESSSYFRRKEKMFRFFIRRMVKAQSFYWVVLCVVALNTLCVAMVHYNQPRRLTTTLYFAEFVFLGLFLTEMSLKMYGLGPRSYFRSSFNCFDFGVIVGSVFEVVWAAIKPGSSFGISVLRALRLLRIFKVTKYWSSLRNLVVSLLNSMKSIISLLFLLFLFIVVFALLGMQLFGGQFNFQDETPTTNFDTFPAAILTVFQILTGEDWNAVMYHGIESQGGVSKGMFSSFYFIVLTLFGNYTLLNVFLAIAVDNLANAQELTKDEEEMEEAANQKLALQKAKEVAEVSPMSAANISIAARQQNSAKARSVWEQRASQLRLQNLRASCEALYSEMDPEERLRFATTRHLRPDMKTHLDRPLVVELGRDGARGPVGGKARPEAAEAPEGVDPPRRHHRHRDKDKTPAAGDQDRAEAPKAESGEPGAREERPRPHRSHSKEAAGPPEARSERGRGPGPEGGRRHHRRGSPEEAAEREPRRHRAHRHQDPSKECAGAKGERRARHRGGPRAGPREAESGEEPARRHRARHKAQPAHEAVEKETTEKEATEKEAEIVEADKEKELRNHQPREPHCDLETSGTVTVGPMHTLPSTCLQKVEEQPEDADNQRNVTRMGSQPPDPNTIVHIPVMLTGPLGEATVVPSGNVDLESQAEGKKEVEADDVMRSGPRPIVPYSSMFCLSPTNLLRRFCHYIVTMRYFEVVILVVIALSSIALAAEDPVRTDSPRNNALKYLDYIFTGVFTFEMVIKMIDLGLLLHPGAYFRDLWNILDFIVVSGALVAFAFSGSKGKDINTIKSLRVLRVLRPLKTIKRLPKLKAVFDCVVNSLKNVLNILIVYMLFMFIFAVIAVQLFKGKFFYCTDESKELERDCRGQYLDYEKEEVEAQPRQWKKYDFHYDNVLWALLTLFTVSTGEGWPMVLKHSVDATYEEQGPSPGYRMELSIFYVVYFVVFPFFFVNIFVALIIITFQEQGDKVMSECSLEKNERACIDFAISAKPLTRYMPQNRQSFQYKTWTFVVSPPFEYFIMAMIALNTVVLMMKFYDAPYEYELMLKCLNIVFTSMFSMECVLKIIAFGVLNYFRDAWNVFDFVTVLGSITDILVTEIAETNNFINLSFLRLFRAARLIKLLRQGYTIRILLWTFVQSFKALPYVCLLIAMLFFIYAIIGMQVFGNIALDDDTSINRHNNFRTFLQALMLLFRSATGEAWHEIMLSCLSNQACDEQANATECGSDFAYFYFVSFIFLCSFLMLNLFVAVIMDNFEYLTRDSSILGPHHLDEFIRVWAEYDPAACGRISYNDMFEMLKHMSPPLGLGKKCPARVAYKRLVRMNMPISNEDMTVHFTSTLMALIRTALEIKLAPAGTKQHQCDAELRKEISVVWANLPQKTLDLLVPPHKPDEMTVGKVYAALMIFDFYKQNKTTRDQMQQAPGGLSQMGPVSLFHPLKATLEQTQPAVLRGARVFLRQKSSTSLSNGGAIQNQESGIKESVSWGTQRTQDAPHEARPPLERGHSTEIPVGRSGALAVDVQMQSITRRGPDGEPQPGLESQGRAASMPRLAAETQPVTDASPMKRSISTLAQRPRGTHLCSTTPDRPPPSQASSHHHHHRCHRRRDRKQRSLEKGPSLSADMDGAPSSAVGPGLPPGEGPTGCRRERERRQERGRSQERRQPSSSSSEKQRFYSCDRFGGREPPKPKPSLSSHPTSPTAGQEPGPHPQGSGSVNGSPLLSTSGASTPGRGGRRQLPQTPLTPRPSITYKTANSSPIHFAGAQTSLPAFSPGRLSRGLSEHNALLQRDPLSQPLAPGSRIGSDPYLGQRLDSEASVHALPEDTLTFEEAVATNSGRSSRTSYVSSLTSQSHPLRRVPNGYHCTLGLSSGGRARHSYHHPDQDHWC", "T1 sequence (P54284 whole entry partner)": "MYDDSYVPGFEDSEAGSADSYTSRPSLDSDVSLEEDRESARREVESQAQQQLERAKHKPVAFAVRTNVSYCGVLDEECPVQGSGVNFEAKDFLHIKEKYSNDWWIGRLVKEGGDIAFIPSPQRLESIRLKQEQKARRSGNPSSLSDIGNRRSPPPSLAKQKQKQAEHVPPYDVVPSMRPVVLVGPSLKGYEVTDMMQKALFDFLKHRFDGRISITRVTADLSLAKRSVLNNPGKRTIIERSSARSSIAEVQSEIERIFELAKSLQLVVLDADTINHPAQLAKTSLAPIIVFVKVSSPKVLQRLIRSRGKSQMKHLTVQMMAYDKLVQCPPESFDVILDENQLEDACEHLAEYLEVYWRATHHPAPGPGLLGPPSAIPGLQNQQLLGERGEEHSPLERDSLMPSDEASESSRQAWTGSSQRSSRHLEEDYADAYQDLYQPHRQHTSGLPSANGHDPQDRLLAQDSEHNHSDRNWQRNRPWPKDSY", "T1 sequence (P54289 25-946 partner limits assumed)": "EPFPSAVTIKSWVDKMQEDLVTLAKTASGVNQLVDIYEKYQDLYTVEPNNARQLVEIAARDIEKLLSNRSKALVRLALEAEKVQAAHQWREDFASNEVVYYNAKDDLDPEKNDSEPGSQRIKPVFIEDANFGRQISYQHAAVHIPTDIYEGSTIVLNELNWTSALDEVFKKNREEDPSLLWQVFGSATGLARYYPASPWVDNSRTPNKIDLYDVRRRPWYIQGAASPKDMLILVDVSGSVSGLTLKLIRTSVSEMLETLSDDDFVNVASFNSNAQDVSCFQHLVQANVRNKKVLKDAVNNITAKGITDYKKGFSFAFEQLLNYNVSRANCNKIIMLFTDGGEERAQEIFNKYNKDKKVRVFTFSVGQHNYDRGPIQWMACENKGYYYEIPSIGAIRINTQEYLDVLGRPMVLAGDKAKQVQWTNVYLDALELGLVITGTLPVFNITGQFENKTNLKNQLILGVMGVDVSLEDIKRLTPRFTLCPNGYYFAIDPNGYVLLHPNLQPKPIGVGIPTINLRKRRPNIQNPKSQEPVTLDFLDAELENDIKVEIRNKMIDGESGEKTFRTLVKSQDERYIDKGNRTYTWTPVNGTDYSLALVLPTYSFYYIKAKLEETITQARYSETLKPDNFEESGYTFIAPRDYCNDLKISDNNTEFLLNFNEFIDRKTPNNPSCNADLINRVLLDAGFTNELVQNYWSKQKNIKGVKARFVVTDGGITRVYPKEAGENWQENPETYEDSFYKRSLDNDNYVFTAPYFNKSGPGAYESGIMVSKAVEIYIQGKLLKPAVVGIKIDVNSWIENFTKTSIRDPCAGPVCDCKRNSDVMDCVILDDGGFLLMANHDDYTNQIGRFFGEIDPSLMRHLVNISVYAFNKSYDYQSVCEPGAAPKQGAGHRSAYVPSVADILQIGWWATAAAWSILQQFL", "T1 sequence (P54289 947-1103 partner limits assumed)": "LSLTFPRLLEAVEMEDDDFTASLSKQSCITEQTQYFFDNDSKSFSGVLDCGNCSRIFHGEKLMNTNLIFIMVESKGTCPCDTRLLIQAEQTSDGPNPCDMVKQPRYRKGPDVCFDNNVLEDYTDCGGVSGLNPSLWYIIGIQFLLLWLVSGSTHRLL", "assay": "High-throughput CaV2.2/Kir2.3 FLIPR fluorescent assay", "type": "cell-based", "conditions": "Table 4; Fluo-4 FLIPR; closed or inactivated state not stated; read-out: FLIPR data CaV2.2", "description": "(§1) Cells were plated in 384-well, clear-bottom, black-walled, poly-D-lysine coated plates (Becton Dickinson, Franklin Lake, N.J.) 2 days prior to use in the FLIPR assay. 100 μL of cells (1.4×10^6 cell/mL) containing doxycyline (Sigma-Aldrich, 1.5 μg/mL; to induce channel expression) were added to each well using a Multidrop (Thermo Scientific, Waltham, Mass.) and were maintained in 5% CO2 incubator at 37° C. On the morning of the assay, cells were transferred to a 5% CO2 incubator at 29° C.\n(§2) Cells were washed with a wash buffer containing (in mM): 118 NaCl, 18.4 HEPES, 11.7 D-glucose, 2 CaCl2, 0.5 MgSO4, 4.7 KCl, 1.2 KH2PO4, pH adjusted to 7.2 with NaOH. 4.4 μM of the fluorescent indicator dye, Fluo-4 (Invitrogen), prepared in pluronic acid (Sigma-Aldrich), was loaded into the wells and incubated for 45 minutes at 29° C. in 5% CO2. Cells were then rinsed with either a 2 mM KCl closed-state buffer (in mM: 138.5 NaCl, 10 HEPES, 10 D-glucose, 1 CaCl2, and 2 KCl, with the pH adjusted to 7.4 with NaOH) when performing the closed-state assay or 12.5 mM KCl inactivated-state buffer (in mM: 128 NaCl, 10 HEPES, 10 D-glucose, 1 CaCl2, and 12.5 mM KCl, with the pH adjusted to 7.4 with NaOH) when performing the inactivated-state assay.\n(§3) Calcium entry was evoked with an addition of 130 mM KCl stimulation buffer (in mM: 10.5 NaCl, 10 HEPES, 10 D-glucose, 1 CaCl2, and 130 KCl, with the pH adjusted to 7.4 with NaOH) for both the closed-state or inactivated-state assay. A change in the Fluo-4 fluorescence signal was assessed using FLIPR^TETRA™ instrument (Molecular Devices, Sunnyvale, Calif.) for 3 minutes following the elevation of extracellular KCl using an illumination wavelength of 470-495 nm with emissions recorded at 515-575 nm.\n(§4) Concentration-dependent response curves were obtained by comparing the fluorescence signal in the presence of compound and fitted with a logistic function (1) to obtain the concentration that inhibited 50% (IC50) of the RLU signal using OriginPro v.7.5 software (OriginLab, Northampton, Mass.).\n(§5) To assess the quality of the FLIPR assays the Z-factor (2) was used to quantify the suitability of the assay conditions using the following equation: […]\n(§6) Data are expressed as mean and standard deviation (SD).", "units": {"IC50": "nM"}, "values": [{"smiles": "O=C(NCc1ccc(S(=O)(=O)c2cccc(C(F)(F)F)c2)cc1)[C@@H]1C[C@@H](F)CN1", "note": "[Compound 68, (2S,4R)-4-fluoro-N-(4-((3-(trifluoromethyl)phenyl)sulfonyl)benzyl)pyrrolidine-2-carboxamide]", "IC50": 2300}, {"smiles": "O=C(NCc1ccc(S(=O)(=O)c2cccc(C(F)(F)F)c2)cn1)[C@H]1CCCN1", "note": "[Compound 108, (R)-N-((5-((3-(trifluoromethyl)phenyl)sulfonyl)pyridin-2-yl)methyl)pyrrolidine-2-carboxamide]", "IC50": 2600}, {"smiles": "O=C(NCc1ccccc1S(=O)(=O)c1cccc(C(F)(F)F)c1)[C@H]1CCCN1", "note": "[Compound 78, (R)-N-(2-((3-(trifluoromethyl)phenyl)sulfonyl)benzyl)pyrrolidine-2-carboxamide]", "IC50": 3750}, {"smiles": "O=C(NCc1ccccc1S(=O)(=O)c1cccc(C(F)(F)F)c1)[C@@H]1C[C@@H](F)CN1", "note": "[Compound 69, (2S,4R)-4-fluoro-N-(2-((3-(trifluoromethyl)phenyl)sulfonyl)benzyl)pyrrolidine-2-carboxamide]", "IC50": 9140}, {"smiles": "CC(C)(N)C(=O)NCc1ccc(S(=O)(=O)c2cccc(C(F)(F)F)c2)cc1", "note": "[Compound 64, 2-amino-2-methyl-N-(4-((3-(trifluoromethyl)phenyl)sulfonyl)benzyl)propanamide]", "IC50": 4070}, {"smiles": "NC1(C(=O)NCc2ccc(S(=O)(=O)c3cccc(C(F)(F)F)c3)cc2)CCC1", "note": "[Compound 66, 1-amino-N-(4-((3-(trifluoromethyl)phenyl)sulfonyl)benzyl)cyclobutanecarboxamide]", "IC50": 1930}, {"smiles": "COc1cc(C(=O)NCc2ccccc2S(=O)(=O)c2cccc(C(F)(F)F)c2)cc(Cl)n1", "note": "[Compound 49, 2-chloro-6-methoxy-N-(2-((3-(trifluoromethyl)phenyl)sulfonyl)benzyl)isonicotinamide]", "IC50": 1040}, {"smiles": "O=C(NCc1cc(S(=O)(=O)c2cccc(C(F)(F)F)c2)ccn1)c1cn2cc(C(F)(F)F)ccc2n1", "note": "[Compound 116, 6-(trifluoromethyl)-N-((4-((3-(trifluoromethyl)phenyl)sulfonyl)pyridin-2-yl)methyl)imidazo[1,2-a]pyridine-2-carboxamide]", "IC50": 1170}, {"smiles": "O=C(NCc1cc(S(=O)(=O)c2cccc(C(F)(F)F)c2)ccn1)c1ccnc(C(F)(F)F)n1", "note": "[Compound 113, 2-(trifluoromethyl)-N-((4-((3-(trifluoromethyl)phenyl)sulfonyl)pyridin-2-yl)methyl)pyrimidine-4-carboxamide]", "IC50": 1390}]}, {"molecular_target": "T1, CaV2.2", "assay": "High-throughput CaV2.2/Kir2.3 FLIPR fluorescent assay", "type": "cell-based", "conditions": "Table 5; Fluo-4 FLIPR; closed or inactivated state not stated; read-out: FLIPR data CaV2.2", "description": "as §1, §2, §3, §4, §5, §6", "units": {"IC50": "nM"}, "values": [{"smiles": "CC(C)(CNC(=O)c1ccc(S(C)(=O)=O)cc1)S(=O)(=O)c1cccc(C(F)(F)F)c1", "note": "[Compound 171, N-(2-methyl-2-((3-(trifluoromethyl)phenyl)sulfonyl)propyl)-4-(methylsulfonyl)benzamide]", "IC50": 8120}, {"smiles": "CC(C)(CCNC(=O)C1(N)CC1)S(=O)(=O)c1cccc(C(F)(F)F)c1", "note": "[Compound 202, 1-amino-N-(3-methyl-3-((3-(trifluoromethyl)phenyl)sulfonyl)butyl)cyclopropanecarboxamide]", "IC50": 10000}, {"smiles": "CC(C)(CNC(=O)c1ccnc(F)c1)S(=O)(=O)c1cccc(C(F)(F)F)c1", "note": "[Compound 177, 2-fluoro-N-(2-methyl-2-((3-(trifluoromethyl)phenyl)sulfonyl)propyl)isonicotinamide]", "IC50": 10000}, {"smiles": "Cc1c(C(=O)NCCC(C)(C)S(=O)(=O)c2cccc(C(F)(F)F)c2)sc2nc[nH]c(=O)c12", "note": "[Compound 210, 5-methyl-N-(3-methyl-3-((3-(trifluoromethyl)phenyl)sulfonyl)butyl)-4-oxo-3,4-dihydrothieno[2,3-d]pyrimidine-6-carboxamide]", "IC50": 3320}, {"smiles": "CC(C)(CNC(=O)c1ccc(F)cc1Cl)S(=O)(=O)c1cccc(C(F)(F)F)c1", "note": "[Compound 159, 2-chloro-4-fluoro-N-(2-methyl-2-((3-(trifluoromethyl)phenyl)sulfonyl)propyl)benzamide]", "IC50": 1320}, {"smiles": "CC(C)(CCNC(=O)[C@@H](N)c1ccccc1)S(=O)(=O)c1cccc(C(F)(F)F)c1", "note": "[Compound 205, (S)-2-amino-N-(3-methyl-3-((3-(trifluoromethyl)phenyl)sulfonyl)butyl)-2-phenylacetamide]", "IC50": 1480}, {"smiles": "COc1cc(OC)cc(C(O)CNC(=O)C(C)(C)S(=O)(=O)c2cccc(C(F)(F)F)c2)c1", "note": "(stereo not drawn) [Compound 142, N-(2-(3,5-dimethoxyphenyl)-2-hydroxyethyl)-2-methyl-2-((3-(trifluoromethyl)phenyl)sulfonyl)propanamide]", "IC50": 440}, {"smiles": "Cc1cncc(C(=O)NCC(C)(C)S(=O)(=O)c2cccc(C(F)(F)F)c2)c1", "note": "[Compound 173, 5-methyl-N-(2-methyl-2-((3-(trifluoromethyl)phenyl)sulfonyl)propyl)nicotinamide]", "IC50": 9060}, {"smiles": "CC(C)(CCNC(=O)[C@@H]1CCCCN1)S(=O)(=O)c1cccc(C(F)(F)F)c1", "note": "[Compound 196, (S)-N-(3-methyl-3-((3-(trifluoromethyl)phenyl)sulfonyl)butyl)piperidine-2-carboxamide]", "IC50": 3510}, {"smiles": "CC(C)(CCNC(=O)C1(N)CCOCC1)S(=O)(=O)c1cccc(C(F)(F)F)c1", "note": "[Compound 197, 4-amino-N-(3-methyl-3-((3-(trifluoromethyl)phenyl)sulfonyl)butyl)tetrahydro-2H-pyran-4-carboxamide]", "IC50": 10000}, {"smiles": "CC(C)(CCNC(=O)c1cn2cc(C(F)(F)F)ccc2n1)S(=O)(=O)c1cc(F)cc(C(F)(F)F)c1", "note": "[Compound 214, N-(3-((3-fluoro-5-(trifluoromethyl)phenyl)sulfonyl)-3-methylbutyl)-6-(trifluoromethyl)imidazo[1,2-a]pyridine-2-carboxamide]", "IC50": 1310}, {"smiles": "CC(C)(CCNC(=O)Cc1cccc(S(C)(=O)=O)c1)S(=O)(=O)c1cccc(C(F)(F)F)c1", "note": "[Compound 193, N-(3-methyl-3-((3-(trifluoromethyl)phenyl)sulfonyl)butyl)-2-(3-(methylsulfonyl)phenyl)acetamide]", "IC50": 1680}, {"smiles": "CC(C)(CCNC(=O)[C@@H]1CCCN1)S(=O)(=O)c1cccc(C(F)(F)F)c1", "note": "[Compound 219, (S)-N-(3-methyl-3-((3-(trifluoromethyl)phenyl)sulfonyl)butyl)pyrrolidine-2-carboxamide]", "IC50": 3230}, {"smiles": "CC(C)(CC(=O)NCCC(F)(F)F)S(=O)(=O)c1cccc(C(F)(F)F)c1", "note": "[Compound 151, 3-methyl-3-((3-(trifluoromethyl)phenyl)sulfonyl)-N-(3,3,3-trifluoropropyl)butanamide]", "IC50": 8230}, {"smiles": "CC(C)(CCNC(=O)c1ccccc1S(C)(=O)=O)S(=O)(=O)c1cccc(C(F)(F)F)c1", "note": "[Compound 192, N-(3-methyl-3-((3-(trifluoromethyl)phenyl)sulfonyl)butyl)-2-(methylsulfonyl)benzamide]", "IC50": 3040}, {"smiles": "CC(C)(CCNC(=O)c1ccc(S(C)(=O)=O)cc1Cl)S(=O)(=O)c1cccc(C(F)(F)F)c1", "note": "[Compound 189, 2-chloro-N-(3-methyl-3-((3-(trifluoromethyl)phenyl)sulfonyl)butyl)-4-(methylsulfonyl)benzamide]", "IC50": 1360}, {"smiles": "CC(C)(CNC(=O)c1ccc(C(F)(F)F)nc1S(C)(=O)=O)S(=O)(=O)c1cccc(C(F)(F)F)c1", "note": "[Compound 155, N-(2-methyl-2-((3-(trifluoromethyl)phenyl)sulfonyl)propyl)-2-(methylsulfonyl)-6-(trifluoromethyl)nicotinamide]", "IC50": 1360}, {"smiles": "COc1cc(CCNC(=O)C(C)(C)S(=O)(=O)c2cccc(C(F)(F)F)c2)ccc1O", "note": "[Compound 139, N-(4-hydroxy-3-methoxyphenethyl)-2-methyl-2-((3-(trifluoromethyl)phenyl)sulfonyl)propanamide]", "IC50": 1220}, {"smiles": "COc1cc(CCNC(=O)CC(C)(C)S(=O)(=O)c2cccc(C(F)(F)F)c2)ccc1O", "note": "[Compound 153, N-(4-hydroxy-3-methoxyphenetnyl)-3-methyl-3-((3-(trifluoromethyl)phenyl)sulfonyl)butanamide]", "IC50": 1220}, {"smiles": "CC(C)(CCNC(=O)C1(N)CCS(=O)(=O)CC1)S(=O)(=O)c1cccc(C(F)(F)F)c1", "note": "[Compound 198, 4-amino-N-(3-methyl-3-((3-(trifluoromethyl)phenyl)sulfonyl)butyl)tetrahydro-2H-thiopyran-4-carboxamide 1,1-dioxide]", "IC50": 9130}, {"smiles": "CC(C)(C(=O)N1Cc2ccncc2C1)S(=O)(=O)c1cccc(C(F)(F)F)c1", "note": "[Compound 148, 2-methyl-1-(1H-pyrrolo[3,4-c]pyridin-2(3H)-yl)-2-((3-(trifluoromethyl)phenyl)sulfonyl)propan-1-one]", "IC50": 10000}]}]}
